Data reported in patent US9624278B2, “Protein complex comprising MCM8 and MCM9 proteins and their use” (CENTRE NATIONAL DE LA RECHERCHE SCIENTIFIQUE, priority 2011, dated 2017).

Tests used:
Assay type in all cases: cell-based, mouse
MCM9-deficient MEF cells = test: BrdU incorporation and growth of MCM9-deficient MEF cells treated 24 h with aphidicolin and released
Protocol: (§1) In Xenopus egg extracts, MCM8 and 9 were found essential for efficient DNA replication^4 5. However, in in-vitro systems derived from Xenopus eggs, DNA replication efficiency is at its maximum, as all potential DNA replication origins are activated, leading to an unusual short inter-origin space and an accelerated S phase (less than 20 min). A deficiency in DNA replication could be therefore rapidly detected. In somatic cells, S phase stands for 6-10 hrs, including during mouse early development (Wowlett and Bolton, 1985), J. Embryol. Exp. Morph, 87, 175; Ferreira and Carmon Forseca, 1997, J. Cell Sci, 11, 889). Therefore, defects in DNA replication can be compensated by induction of the store of dormant origins and/or a higher rate of replication. To investigate this possibility, and reveal possible DNA replication weaknesses in KO MEFs the Inventors first performed DNA fiber stretching^24, using a double pulse-labeling method, applying first a CldU pulse (“red” pulse), followed a second IdU pulse (“green” pulse), as in FIG. 29. Replication fork arrests can be detected by measuring the length of the second pulse, which becomes shorter if the fork is blocked or slowing down. […] To reveal whether MCM9 KO cells were more sensitive to replication stress, the Inventors treated MEF cells for 24 hrs with low concentration (1 μM) of aphidicolin (APH), an inhibitor of DNA polymerases that slows down or blocks replication forks. First, the Inventors quantified the global efficiency of DNA replication by measuring the proportion of cells incorporating BrdU. […] The Inventors concluded that KO cells were highly sensitive to replication fork inhibition. When cells were further released from APH treatment, control cells re-establish the original BrdU-intensity within the first 3 hours (FIG. 30, FIGS. 31A-T). […] The Inventors conclude that MCM9 KO cells are highly sensitive to replication stress, and unable to rescue arrested forks, resulting in growth arrest. […]

WT MEF cells = test: BrdU incorporation and growth of WT MEF cells treated 24 h with aphidicolin and released
Protocol: as §1

MCM9 and MCM8 = test: Western blot of WT MEF cells exposed for 24 h to APH; details: WT MEFs treated by APH
Protocol: FIG. 34B represents a western blot analysis of WT-(lanes A and C) and MCM9-deficient-(lanes B and D) MEF cells exposed (lanes C and D) or not (lanes A and B) for 24 h to APH for MCM9 (panel 1), MCM8 (panel 2), Chk1-P (panel 3), Chk2 (panel 4) and GAPDH (panel 5) as loading control. […] Rad51 is an essential protein of the homologous recombination pathway that is the main repair mechanisms of DSBs caused by replication fork arrest^25,12. […] For chromatin isolation, MEF cells were harvested, washed with PBS, frozen at −80° C. or directly lysed in CSK buffer (150 mM NaCl, 10 mM HEPES pH 7.5, 300 mM Sucrose, 1 mM MgCl2, 1 mM EDTA, 1 mM ATP.MgCl2, 1 mM DTT, 0.2% Triton X-100, Phosphatase-inhibitors (Calbiochem), protease-inhibitors Leupeptin, Aprotinin and Pepstatin at a concentration of 10 μg/ml) for 10 min on ice in a volume of 1 μl buffer for 2000 cells. For whole cell extract (“WCE”), a sample of the lysate was mixed with two times Laemli SDS buffer and boiled. The lysate was centrifuged at 3′800 g for 5 min at 4° C., the pellet homogenized again in CSK buffer, extracted again for 5 min on ice and centrifuged again and finally solubilized in two times Laemli SDS buffer (1 μl buffer for 5000 cells).

## C[C@@]1(CO)[C@H](O)CC[C@@]2(C)[C@H]1CC[C@H]1C[C@@H]3C[C@@]12CC[C@]3(O)CO [APH, aphidicolin]
MCM9-deficient MEF cells; MCM9- (as well as MCM8-) KO MEF cells, 24 h APH then released without drug
  cell growth after the release from APH: died or stopped dividing
MCM9-deficient MEF cells; MCM9-deficient MEF cells, 1 μM aphidicolin, 24 hrs
  BrdU-labeled nuclei after the APH treatment: nearly no BrdU-labeled nuclei
MCM9-deficient MEF cells; surviving MCM9-deficient KO MEF cells, released from 24 h APH treatment
  time until percentage of BrdU-positive cells comparable to before the APH treatment: 48 h
WT MEF cells; WT MEF cells, 1 μM aphidicolin, 24 hrs
  BrdU signal in nuclei after the APH treatment: strongly reduced
WT MEF cells; WT MEF cells, 24 h APH then released without drug
  cell growth after the release from APH: resumed growth soon
WT MEF cells; control (WT) MEF cells, released from 24 h APH treatment
  time to re-establish the original BrdU-intensity after release from APH: ≤ 3 h
MCM9 and MCM8
  expression of MCM9 and MCM8 at the protein level: stronger expression
